For experiment [1], the target named is Voltage-gated inwardly rectifying potassium channel KCNH2 (Homo sapiens, UniProt Q12809). To be noted: Potency.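 Also: confirmatory quantitative high-throughput screen measuring inhibition of hERG channel activity.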
For experiment [2], the target named is T1, Nuclear receptor subfamily 0 group B member 1 (Homo sapiens, UniProt P51843).
T1 sequence (P51843 whole entry): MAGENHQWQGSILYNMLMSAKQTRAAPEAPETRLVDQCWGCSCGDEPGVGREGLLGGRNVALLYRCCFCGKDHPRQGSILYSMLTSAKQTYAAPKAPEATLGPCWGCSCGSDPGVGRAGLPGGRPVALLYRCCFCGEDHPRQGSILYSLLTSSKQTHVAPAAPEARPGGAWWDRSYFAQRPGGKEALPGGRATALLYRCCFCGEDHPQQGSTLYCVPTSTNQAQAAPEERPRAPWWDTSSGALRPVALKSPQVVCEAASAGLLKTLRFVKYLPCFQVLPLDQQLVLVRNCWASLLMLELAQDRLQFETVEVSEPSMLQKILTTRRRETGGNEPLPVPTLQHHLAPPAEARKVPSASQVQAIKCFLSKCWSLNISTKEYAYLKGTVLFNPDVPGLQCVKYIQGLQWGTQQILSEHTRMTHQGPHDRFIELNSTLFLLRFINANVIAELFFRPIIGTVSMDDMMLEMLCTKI
Nature of the experiment: Luminescence-based cell-based high throughput dose response assay for inhibitors of the orphan nuclear receptor subfamily 0, group B, member 1 (DAX1; NR0B1). [Related pubchem assays (depositor defined):AID504766, AID504790]. Format: functional.

The subject of another experiment is HEK293. Nature of the experiment: cells. Format: functional, cell-based. To be noted: Homo sapiens.
Experiment [3] concerns the target T2, Carboxy-terminal domain RNA polymerase II polypeptide A small phosphatase 1 (Homo sapiens, UniProt Q9GZU7).
T2 sequence (Q9GZU7 whole entry): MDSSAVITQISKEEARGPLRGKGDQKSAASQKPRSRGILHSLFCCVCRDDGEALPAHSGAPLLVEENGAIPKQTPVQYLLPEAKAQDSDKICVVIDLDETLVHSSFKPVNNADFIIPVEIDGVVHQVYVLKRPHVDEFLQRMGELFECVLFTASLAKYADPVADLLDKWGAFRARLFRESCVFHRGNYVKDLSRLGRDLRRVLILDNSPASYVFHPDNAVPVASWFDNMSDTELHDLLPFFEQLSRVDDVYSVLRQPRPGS
Nature of the experiment: CTDSP1 inhibitors, concentration-response, biochemical, absorbance readout, ultra-high-throughput screen actives (AID 540297). Format: functional.

Experiment [4] has as its target T3, Ubiquitin-conjugating enzyme E2 N (Homo sapiens, UniProt P61088).
T3 sequence (P61088 whole entry): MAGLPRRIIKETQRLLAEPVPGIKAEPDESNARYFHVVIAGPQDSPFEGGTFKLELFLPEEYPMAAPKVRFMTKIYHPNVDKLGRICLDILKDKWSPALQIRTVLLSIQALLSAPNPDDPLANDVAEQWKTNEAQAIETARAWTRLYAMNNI
Format: functional.

Experiment [5] has as its target T3, Ubiquitin-conjugating enzyme E2 N. It is filed as functional. The source holds these as a separate data set.
The target of another experiment is T4, Bcl-2-related protein A1 (Mus musculus, UniProt Q07440).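 Also: confirmatory dose–response counterscreen on Bfl-1, used to check hits from a UBC13 polyubiquitin inhibitor campaign.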
T4 sequence (Q07440 whole entry): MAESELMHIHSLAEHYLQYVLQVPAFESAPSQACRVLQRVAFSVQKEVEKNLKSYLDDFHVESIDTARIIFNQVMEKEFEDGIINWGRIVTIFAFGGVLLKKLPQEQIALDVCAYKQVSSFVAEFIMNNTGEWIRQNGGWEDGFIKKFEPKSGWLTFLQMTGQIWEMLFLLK
Format: functional.

Experiment [6] is described as follows: microbe, parasite or virus in culture. The following applies: Mycobacterium tuberculosis. It is filed as functional.
Experiment [7] can be described thus: Vero E6 cell cytotoxicity, dose response, cytotoxicity control for non-replicating M. tuberculosis project, secondary assay (AID 492998). It is filed as functional, VeroE6. To be noted: Vero C1008.
Experiment [8] in a line: THP-1 cell cytotoxicity, dose response, cytotoxicity control for non-replicating M. tuberculosis project (AID 489025). It is filed as functional.
In experiment [9] the test system is Streptococcus sp. 'group A'. Nature of the experiment: Streptococcus pyogenes SK(-)GAS viability under kanamycin – luminescence, BacTiterGlo, confirmation, counter-screen for streptokinase expression inhibitor project, dose response (AID 1900). Format: functional, organism-based. On the technique in general: Counterscreens check selectivity or assay interference.

For experiment [10], the system named is Vero. Nature of the experiment: cells. It is filed as functional. The following applies: Chlorocebus sabaeus.
A short description of another experiment: cells. Format: functional.
Experiment [11] has as its system Vero. Nature of the experiment: cells. Format: functional, cell-based. The following applies: Chlorocebus sabaeus.
Another experiment relates to Streptococcus. Nature of the experiment: GAS UMAA2166 growth inhibition – luminescence, BacTiterGlo, counter-screen for streptokinase expression inhibitor project, dose response (AID 1915).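 Also: potency for reduction of bacterial viability or growth.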 Format: functional, organism-based.
For experiment [12], the target named is Peroxisome proliferator-activated receptor gamma/Nuclear receptor coactivator 3 (Homo sapiens, UniProt P37231). Nature of the experiment: TR-FRET dose response biochemical High Throughput Screening assay for agonists of the steroid receptor coactivator 3 (SRC-3) recruitment by the peroxisome proliferator-activated receptor gamma (PPAR gamma): non-selective agonists. [Related pubchem assays: 1301 (Confirmation screen.), 1048 (Primary screen.)]. Format: functional.

The target in experiment [13] is Peroxisome proliferator-activated receptor gamma/Nuclear receptor coactivator 1 (Homo sapiens, UniProt P37231). Nature of the experiment: TR-FRET dose response biochemical High Throughput Screening assay for agonists of the steroid receptor coactivator 1 (SRC-1) recruitment by the peroxisome proliferator-activated receptor gamma (PPAR gamma): non-selective agonists. [Related pubchem assays (depositor defined):AID1300, AID1808, AID504735, AID631]. Format: protein assay. Background: In TR-FRET formats the signal depends on donor and acceptor labels being close together.

The target of experiment [14] is Peroxisome proliferator-activated receptor gamma/Nuclear receptor coactivator 2 (Homo sapiens, UniProt P37231). Nature of the experiment: TR-FRET dose response biochemical High Throughput Screening assay for agonists of the steroid receptor coactivator 2 (SRC-2) recruitment by the peroxisome proliferator-activated receptor gamma (PPAR gamma): non-selective agonists. [Related pubchem assays: 1297, 1032 ]. Format: functional.

Experiment [15] is described as follows: viability of PTEN-deleted HCT116 cells – cell-based, HCT116 PTEN knockout, dose response (AID 1047).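 Also: HCT116 colon tumor cells with PTEN knocked out; cells exposed to compound for 60 hours before readout; potency for loss of cell viability measured by luminescence.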 Format: functional.
Experiment [16] is described as follows: viability of HCT116 lacking mutant beta-catenin – cell-based, human colon tumor, dose response (AID 1045).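 Also: HCT116 colon tumor cells with beta catenin knocked out; cells exposed to compound for 60 hours.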 It is filed as functional.
The next experiment concerns the target T5, CAAX prenyl protease 1 (Saccharomyces cerevisiae S288c, UniProt P47154).
T5 sequence (P47154 whole entry): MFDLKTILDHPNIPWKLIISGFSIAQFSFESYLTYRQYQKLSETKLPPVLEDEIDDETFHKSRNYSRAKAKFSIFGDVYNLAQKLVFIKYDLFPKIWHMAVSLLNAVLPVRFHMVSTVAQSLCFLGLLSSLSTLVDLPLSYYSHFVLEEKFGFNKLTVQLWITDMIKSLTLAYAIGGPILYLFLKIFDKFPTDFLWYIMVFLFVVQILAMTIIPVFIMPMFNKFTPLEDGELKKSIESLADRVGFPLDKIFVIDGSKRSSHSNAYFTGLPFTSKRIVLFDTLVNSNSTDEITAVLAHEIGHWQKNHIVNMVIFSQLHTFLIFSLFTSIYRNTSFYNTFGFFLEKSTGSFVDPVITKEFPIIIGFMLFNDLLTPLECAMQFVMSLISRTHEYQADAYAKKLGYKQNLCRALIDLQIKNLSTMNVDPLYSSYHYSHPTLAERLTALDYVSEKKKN
Nature of the experiment: yeast CAAX protease Ste24 inhibition – biochemical, S. cerevisiae, plate reader, cherry-pick, dose response (AID 488815).

The next experiment concerns the target T6, CAAX prenyl protease 2 (Homo sapiens, UniProt Q9Y256).
T6 sequence (Q9Y256 whole entry): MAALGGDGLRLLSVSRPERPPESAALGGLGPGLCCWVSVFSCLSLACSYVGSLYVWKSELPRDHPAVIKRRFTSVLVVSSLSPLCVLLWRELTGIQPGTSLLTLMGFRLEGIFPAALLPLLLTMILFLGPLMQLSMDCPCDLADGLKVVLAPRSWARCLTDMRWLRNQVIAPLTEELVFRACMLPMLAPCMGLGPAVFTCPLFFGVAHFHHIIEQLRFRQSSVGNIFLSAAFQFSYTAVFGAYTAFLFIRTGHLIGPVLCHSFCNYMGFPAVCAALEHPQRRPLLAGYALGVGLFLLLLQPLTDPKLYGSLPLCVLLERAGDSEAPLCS
Nature of the experiment: inhibition of Ras-converting CAAX protease Rce1 – biochemical, yeast membranes, quenched-peptide fluorescence, cherry-pick, dose response (AID 588849).

The target in a further experiment is Fatty acid synthase (Homo sapiens, UniProt P49327). Nature of the experiment: inhibition of human FAS-TE enzyme activity – biochemical, kinetic fluorescence intensity, dose response (AID 624326).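 Also: rate of fluorescence rise from hydrolysis of a fluorogenic O-methyl fluorescein ester substrate.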 Format: functional.
A further experiment concerns H9c2. Nature of the experiment: cells. Format: functional, cell-based. To be noted: Rattus norvegicus, H9c2, Myocardium.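 Also: confirmatory concentration-response retest of ultra-high-throughput screening hits for modulation of myocardial damage; cell death induced by hydrogen peroxide oxidative stress; compound pretreatment for 60 min then peroxide exposure for 2 h; potency is for protecting the cells against peroxide damage rather than for killing them.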

Counter-ions that a name gives are not always drawn. Activity calls are given as the source filed them.

The values that follow come from ChEMBL document CHEMBL1201862, “PubChem BioAssay data set” (2004).

In general, AC50 refers to the concentration at which the activity in the assay is half-maximal. For orientation: IC50 means the concentration needed to halve the response being measured. Broadly, the EC50 is the concentration giving half of the maximal effect.

Chain of Peroxisome proliferator-activated receptor gamma/Nuclear receptor coactivator 1 (P37231 whole entry): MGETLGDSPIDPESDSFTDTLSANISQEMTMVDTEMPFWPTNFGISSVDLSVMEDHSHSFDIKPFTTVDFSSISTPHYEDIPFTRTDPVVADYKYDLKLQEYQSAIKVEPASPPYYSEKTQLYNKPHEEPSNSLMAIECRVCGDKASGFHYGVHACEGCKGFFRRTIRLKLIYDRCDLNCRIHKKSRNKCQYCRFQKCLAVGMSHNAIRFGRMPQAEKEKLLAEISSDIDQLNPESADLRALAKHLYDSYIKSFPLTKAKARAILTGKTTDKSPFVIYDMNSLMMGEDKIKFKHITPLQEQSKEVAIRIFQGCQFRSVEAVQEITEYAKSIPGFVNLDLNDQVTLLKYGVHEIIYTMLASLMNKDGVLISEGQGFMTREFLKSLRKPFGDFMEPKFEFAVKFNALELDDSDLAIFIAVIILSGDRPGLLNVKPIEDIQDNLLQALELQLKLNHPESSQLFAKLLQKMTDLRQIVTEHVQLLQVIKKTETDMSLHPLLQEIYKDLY
Chain of Peroxisome proliferator-activated receptor gamma/Nuclear receptor coactivator 1 (Q15788 whole entry, further chain): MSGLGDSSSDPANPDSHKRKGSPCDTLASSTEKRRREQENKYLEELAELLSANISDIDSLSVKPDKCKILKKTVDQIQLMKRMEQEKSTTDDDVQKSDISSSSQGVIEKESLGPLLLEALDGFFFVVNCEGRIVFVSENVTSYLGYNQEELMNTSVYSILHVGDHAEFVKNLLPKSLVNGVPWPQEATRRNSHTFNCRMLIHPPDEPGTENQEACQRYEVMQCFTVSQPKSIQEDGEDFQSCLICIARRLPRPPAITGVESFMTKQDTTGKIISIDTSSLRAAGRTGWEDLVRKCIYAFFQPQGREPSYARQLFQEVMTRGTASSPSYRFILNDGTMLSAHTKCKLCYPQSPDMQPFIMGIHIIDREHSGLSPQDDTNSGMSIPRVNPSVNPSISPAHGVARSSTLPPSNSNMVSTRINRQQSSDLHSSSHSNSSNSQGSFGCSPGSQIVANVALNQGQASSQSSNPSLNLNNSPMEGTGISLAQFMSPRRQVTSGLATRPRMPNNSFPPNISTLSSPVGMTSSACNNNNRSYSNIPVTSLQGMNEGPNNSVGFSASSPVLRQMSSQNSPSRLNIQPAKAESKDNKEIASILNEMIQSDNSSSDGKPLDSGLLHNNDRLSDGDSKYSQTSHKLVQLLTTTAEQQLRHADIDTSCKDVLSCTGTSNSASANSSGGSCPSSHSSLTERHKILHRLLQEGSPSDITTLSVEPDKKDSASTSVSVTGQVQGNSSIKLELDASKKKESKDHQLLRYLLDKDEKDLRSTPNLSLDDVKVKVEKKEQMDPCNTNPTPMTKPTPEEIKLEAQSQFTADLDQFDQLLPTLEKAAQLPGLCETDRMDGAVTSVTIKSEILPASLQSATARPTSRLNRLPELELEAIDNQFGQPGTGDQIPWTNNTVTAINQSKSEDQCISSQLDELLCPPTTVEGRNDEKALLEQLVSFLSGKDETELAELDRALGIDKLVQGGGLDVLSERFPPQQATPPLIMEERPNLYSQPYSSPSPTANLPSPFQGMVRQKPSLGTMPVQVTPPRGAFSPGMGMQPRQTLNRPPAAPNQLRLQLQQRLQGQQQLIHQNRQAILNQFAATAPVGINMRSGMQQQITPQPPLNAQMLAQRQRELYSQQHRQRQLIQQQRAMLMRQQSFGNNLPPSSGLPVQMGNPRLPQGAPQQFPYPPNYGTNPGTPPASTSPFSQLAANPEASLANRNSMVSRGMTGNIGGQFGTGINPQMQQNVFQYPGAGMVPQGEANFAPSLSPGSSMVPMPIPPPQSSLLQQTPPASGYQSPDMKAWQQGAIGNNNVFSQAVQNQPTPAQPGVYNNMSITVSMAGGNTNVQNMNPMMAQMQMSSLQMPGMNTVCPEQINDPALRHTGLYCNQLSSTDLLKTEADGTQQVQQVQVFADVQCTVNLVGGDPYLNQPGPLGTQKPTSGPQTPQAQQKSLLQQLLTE
Chain of Peroxisome proliferator-activated receptor gamma/Nuclear receptor coactivator 2 (P37231 whole entry): as the sequence (P37231 whole entry) above
Chain of Peroxisome proliferator-activated receptor gamma/Nuclear receptor coactivator 2 (Q15596 whole entry, further chain): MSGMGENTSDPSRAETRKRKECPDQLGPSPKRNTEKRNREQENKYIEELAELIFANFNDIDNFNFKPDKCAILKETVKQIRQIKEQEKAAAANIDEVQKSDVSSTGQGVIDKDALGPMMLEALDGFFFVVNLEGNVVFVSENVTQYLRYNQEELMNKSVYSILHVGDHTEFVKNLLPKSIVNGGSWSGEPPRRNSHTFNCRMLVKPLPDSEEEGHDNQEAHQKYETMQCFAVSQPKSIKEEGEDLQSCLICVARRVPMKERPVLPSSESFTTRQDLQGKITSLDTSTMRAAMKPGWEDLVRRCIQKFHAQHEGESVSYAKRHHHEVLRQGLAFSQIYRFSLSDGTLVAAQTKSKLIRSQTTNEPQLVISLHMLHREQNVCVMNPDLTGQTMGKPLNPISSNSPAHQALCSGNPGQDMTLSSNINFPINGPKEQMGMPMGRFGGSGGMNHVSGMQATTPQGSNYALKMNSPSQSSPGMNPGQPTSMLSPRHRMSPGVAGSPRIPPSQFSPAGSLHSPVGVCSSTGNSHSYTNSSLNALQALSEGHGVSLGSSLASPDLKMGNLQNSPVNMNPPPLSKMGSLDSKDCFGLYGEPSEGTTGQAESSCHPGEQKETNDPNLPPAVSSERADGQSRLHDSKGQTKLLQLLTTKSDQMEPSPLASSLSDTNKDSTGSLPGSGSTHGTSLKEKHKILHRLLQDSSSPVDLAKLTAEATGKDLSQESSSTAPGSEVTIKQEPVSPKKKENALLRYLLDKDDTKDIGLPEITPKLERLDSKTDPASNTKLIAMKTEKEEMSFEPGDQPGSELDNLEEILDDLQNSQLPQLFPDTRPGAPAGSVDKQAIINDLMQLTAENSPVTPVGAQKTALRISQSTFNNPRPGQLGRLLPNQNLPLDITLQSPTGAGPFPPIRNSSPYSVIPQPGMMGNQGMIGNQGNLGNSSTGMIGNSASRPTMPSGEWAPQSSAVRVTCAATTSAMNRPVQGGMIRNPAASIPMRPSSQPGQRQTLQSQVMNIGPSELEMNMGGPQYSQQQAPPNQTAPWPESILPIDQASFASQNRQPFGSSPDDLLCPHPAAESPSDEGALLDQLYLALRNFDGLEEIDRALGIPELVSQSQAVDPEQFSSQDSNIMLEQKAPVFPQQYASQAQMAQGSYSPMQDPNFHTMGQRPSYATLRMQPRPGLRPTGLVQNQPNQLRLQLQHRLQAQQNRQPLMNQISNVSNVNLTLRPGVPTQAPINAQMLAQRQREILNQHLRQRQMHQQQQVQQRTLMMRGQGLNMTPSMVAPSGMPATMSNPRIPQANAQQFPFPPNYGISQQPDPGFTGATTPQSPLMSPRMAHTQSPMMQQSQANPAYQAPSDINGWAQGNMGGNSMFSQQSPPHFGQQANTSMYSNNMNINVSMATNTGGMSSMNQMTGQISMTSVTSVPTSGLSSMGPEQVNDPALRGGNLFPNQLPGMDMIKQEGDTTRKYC
Chain of Voltage-gated inwardly rectifying potassium channel KCNH2 (Q12809 whole entry): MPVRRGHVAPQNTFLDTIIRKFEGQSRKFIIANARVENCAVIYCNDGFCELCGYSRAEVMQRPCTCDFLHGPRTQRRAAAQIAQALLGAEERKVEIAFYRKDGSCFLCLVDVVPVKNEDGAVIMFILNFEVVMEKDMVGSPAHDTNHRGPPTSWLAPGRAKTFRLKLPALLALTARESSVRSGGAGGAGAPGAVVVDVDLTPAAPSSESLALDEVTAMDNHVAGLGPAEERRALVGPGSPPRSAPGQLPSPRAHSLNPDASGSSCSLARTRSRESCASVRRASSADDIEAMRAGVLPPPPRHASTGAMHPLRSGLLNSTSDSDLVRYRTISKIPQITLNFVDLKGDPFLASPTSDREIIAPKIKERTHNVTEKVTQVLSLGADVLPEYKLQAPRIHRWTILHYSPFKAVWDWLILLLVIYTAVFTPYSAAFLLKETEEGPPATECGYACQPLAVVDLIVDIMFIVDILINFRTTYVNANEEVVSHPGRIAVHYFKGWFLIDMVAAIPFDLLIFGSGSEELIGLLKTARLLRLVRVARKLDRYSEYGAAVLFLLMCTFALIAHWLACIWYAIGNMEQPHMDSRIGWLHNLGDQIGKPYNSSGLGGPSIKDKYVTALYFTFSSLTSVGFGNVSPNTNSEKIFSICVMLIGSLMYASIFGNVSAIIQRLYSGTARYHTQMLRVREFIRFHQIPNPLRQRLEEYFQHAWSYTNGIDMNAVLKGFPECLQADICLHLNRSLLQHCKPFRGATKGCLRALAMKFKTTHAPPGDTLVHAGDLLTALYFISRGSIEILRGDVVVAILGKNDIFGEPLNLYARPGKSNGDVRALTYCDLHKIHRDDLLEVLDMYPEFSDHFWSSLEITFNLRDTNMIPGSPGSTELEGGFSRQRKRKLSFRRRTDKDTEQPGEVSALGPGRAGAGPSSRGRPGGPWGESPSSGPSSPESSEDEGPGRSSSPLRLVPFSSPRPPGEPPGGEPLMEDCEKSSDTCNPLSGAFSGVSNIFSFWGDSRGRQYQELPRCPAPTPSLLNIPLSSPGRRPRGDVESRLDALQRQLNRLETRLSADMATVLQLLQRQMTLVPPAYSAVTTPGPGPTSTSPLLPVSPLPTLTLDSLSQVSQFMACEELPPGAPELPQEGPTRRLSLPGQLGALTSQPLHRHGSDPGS

For the molecule `CC(C)(CO)Cc1cc(C(C)(C)C)c(O)c(C(C)(C)C)c1`, the concentration at half-maximal activity (AC50) in experiment [1] was 35.5 µM (inconclusive).
With `O=C(Nc1nc2ccsc2c(=O)s1)c1ccc(F)cc1Cl`, the IC50 in experiment [2] was > 67.5 µM (inactive); in the experiment on HEK293, > 67.5 µM (inactive); in experiment [3] it was 31.7 µM (active).
For the molecule `O=C(O)CC(NNC(=O)c1ccccc1)C(=O)Nc1ccc([N+](=O)[O-])cc1` (stereo not given), the IC50 (in [2]; with HEK293) was > 67.5 µM (inactive) each time.
Turning to `O=C(NNC(=O)c1nn(-c2ccc(F)cc2)ccc1=O)c1ccccc1Cl`, the IC50 was 9.9 µM (active) in [4], 4.29 µM (active) in experiment [5] and > 20 µM (inactive) at Bcl-2-related protein A1.
As for `CC(Oc1ccc2ccccc2c1)C(=O)NNC(=S)NC(=O)c1ccco1` (stereo not given), the CC50 in [6] was 39.5 µM (active); in experiment [7], > 20 µM (active); in experiment [8], 27.3 µM (active); in the experiment on Vero [10], > 25 µM (active). The EC50 in experiment [9] is 0.074 µM (active); in the experiment on Streptococcus, 0.432 µM (active). Also, the values for the IC50 in “cells” and with Vero [11] were 6.03 µM (active) and 24.6 µM (active), respectively.
As for `CCOC(=O)N1CCC(NC(=O)CSc2cc(=O)n(CC)c3ccccc23)CC1`, the values for the EC50 in experiment [12], in experiment [13] and in experiment [14] were > 79.4 µM (not active), > 79.4 µM (inactive) and > 79.4 µM (not active), respectively.
As to `COc1cccc(-c2ccc(NC(=O)C3CCCN(Cc4cnn(C)c4)C3)cc2)c1` (stereo not given), the concentration for half-maximal inhibition (IC50) with Vero [11] was 21.9 µM (active).
With `CCOc1ccccc1NC(=O)C(OC(=O)c1ccc(O)cc1)c1ccccc1` (stereo not given), the results for the IC50 (in [4]; in experiment [5]; at Bcl-2-related protein A1) were 15.2 µM (active), > 20 µM (inactive) and > 20 µM (inactive), respectively. Further, the EC50 is 729 µM (active) in [15] and 680 µM (active) in experiment [16].
`Cc1ccc(C)c(N2CCN(c3ncnc4c3cnn4-c3ccccc3)CC2)c1`: in the experiment with Vero [10], the CC50 was > 25 µM (active). Besides, the IC50 with Vero [11] was > 25 µM (active).
For the molecule `O=C(COc1ccc(Cl)cc1Cl)OCC(=O)N1CCCc2ccccc21`, the IC50 (in experiment [2]; in the experiment on HEK293) was > 67.5 µM (inactive) throughout.
Consider `COc1ccc(Cn2c(N)c(S(=O)(=O)c3cccs3)c3nc4ccccc4nc32)cc1`, for which the AC50 at CAAX prenyl protease 1 was 2.79 µM (active); at CAAX prenyl protease 2 it was 4.33 µM (active).
As to `CCOC(=O)C1CCN(C(=O)CSc2c3c(nc4ccccc24)CCC3)CC1`, the EC50 in experiment [12] is > 79.4 µM (not active); in experiment [13] it was > 79.4 µM (inactive); in experiment [14] it was > 79.4 µM (not active).
Turning to `O=C(Nc1nc(-c2ccc(S(=O)(=O)N3CCCC3)cc2)cs1)C1COc2ccccc2O1` (stereo not given), the EC50 was > 79.4 µM (not active) in experiment [12], 31 µM (inactive) in experiment [13] and 27.7 µM (not active) in experiment [14]. Moreover, the IC50 at Fatty acid synthase is 1.28 µM (active); in the experiment with H9c2, > 79 µM (inactive).
As for `COC(=O)c1ccc(Cn2c(O)c(/N=N/C(=N)S)c3ccccc32)o1`, the concentration for half-maximal inhibition (IC50) in experiment [4] is 14.1 µM (active); in experiment [5], > 20 µM (inactive); at Bcl-2-related protein A1 it was > 20 µM (inactive).
As to `COC(=O)[C@H](NC(=O)c1cc(-c2ccccc2)nc2ccccc12)c1ccccc1`, in experiment [1], the AC50 was 0.794 µM (inconclusive).
As to `COc1cc2c(cc1OC)-c1c/c(=N\c3c(C)cc(C)cc3C)n(C)c(=O)n1CC2` [TREQUINSIN HYDROCHLORIDE], the half-maximal activity concentration (AC50) in [1] is 35.5 µM (inconclusive).
